By IC50 is commonly meant the concentration that gives 50% inhibition.

Active and inactive are the calls of the source. How the calls were made is not given here.

The test addresses glucose-6-phosphate dehydrogenase-6-phosphogluconolactonase (Plasmodium falciparum 3D7). As to the kind of experiment: PfG6PD enzyme inhibitors, kinetic orthogonal readout, SAR follow-up, orthogonal assay for PfG6PD antimalarial inhibitor project, biochemical, kinetic direct NADPH detection, set 2 (AID 602133). Particulars: recombinant PfG6PD.
For the compound `CC(C)(C)OC(=O)N1CCCC1CNC(=O)c1ccc2c(c1)NC(=O)/C(=C/c1ccccc1F)S2` (stereo not drawn), the IC50 is 24.4 µM.

Regarding `CCN1CCC[C@H]1CNC(=O)c1ccc2c(c1)NC(=O)/C(=C/c1ccccc1F)S2`, the IC50 was 4.65 µM.

As to `NCCNC(=O)c1ccc2c(c1)NC(=O)c1ccccc1S2`, the IC50 is > 80 µM (inactive).

Take `CCN1CCC[C@H]1CNC(=O)c1ccc2c(c1)NC(=O)c1ccccc1S2`: the half-inhibitory concentration (IC50) was 46.4 µM.

In the case of `CCN1CCC[C@@H]1CNC(=O)c1ccc2c(c1)NC(=O)c1ccccc1S2`, the IC50 is 4.84 µM.

Consider `CCN(CC)CCCC(C)Nc1ccnc2cc(Cl)ccc12` (stereo not drawn), for which the IC50 is 43 µM.

On to `CCN1CCCC1CNC(=O)c1ccc2c(c1)NC(=O)/C(=C/c1ccc(F)cc1)S2` (stereo not drawn), for which the IC50 is 2.06 µM.

With `CN(C)c1ccccc1CNC(=O)c1ccc2c(c1)NC(=O)/C(=C/c1ccccc1F)S2`, the IC50 is 67.8 µM.

Consider `O=C(NCCN1CCOCC1)c1ccc2c(c1)NC(=O)c1ccccc1S2`, for which the IC50 was > 80 µM (inactive).

For `CCN1CCCC1CNC(=O)c1ccc2c(c1)NC(=O)/C(=C/c1ccc3ccccc3c1)S2` (stereo not drawn), the IC50 is 2.88 µM.

On to `CCN(CC)CCNC(=O)c1ccc2c(c1)NC(=O)/C(=C/c1ccccc1F)S2`, for which the IC50 is 4.75 µM.

As to `CCC(C)N(CCNC(=O)c1ccc2c(c1)NC(=O)c1ccccc1S2)C1CCCCC1` (stereo not drawn), the IC50 is 13.3 µM.

In the case of `CCN1CCCC1CNC(=O)c1ccc2c(c1)NC(=O)C(Cc1ccccc1F)S2` (stereo not drawn), the IC50 was > 80 µM (inactive).

In the case of `O=C(NCCN1CCCCC1)c1ccc2c(c1)NC(=O)c1ccccc1S2`, the IC50 was 18.3 µM.

For `CCN1CCC[C@@H]1CNC(=O)c1ccc2c(c1)NC(=O)/C(=C/c1ccccc1F)S2`, the IC50 is 1.94 µM.

With `CCC(C)N1CCCC1CNC(=O)c1ccc2c(c1)NC(=O)c1ccccc1S2` (stereo not drawn), the IC50 was 9.97 µM.

As for `NC1CCN(C(=O)c2ccc3c(c2)NC(=O)/C(=C/c2ccccc2F)S3)C1` (stereo not drawn), the IC50 was 35 µM.

As to `NC1CCN(C(=O)c2ccc3c(c2)NC(=O)c2ccccc2S3)C1` (stereo not drawn), the IC50 is > 80 µM (inactive).

Values taken from PubChem BioAssay AID602133 (Sanford-Burnham Center for Chemical Genomics, 2011).
